The source of these data is ChEMBL document CHEMBL4715719, “Synthesis and biological properties of polyamine modified flavonoids as hepatocellular carcinoma inhibitors” (Eur J Med Chem, 2016).

For data set [1], the system named is SMMC-7721. Kind of data set: Antiproliferative activity against human […] cells assessed as inhibition of cell proliferation at 30 uM measured after 48 hrs by MTT assay relative to control. The class given is functional. Background: Tetrazolium assays rely on reduction of a dye to a coloured formazan, in cell work by metabolically active cells.
In data set [2] the test system is SMMC-7721. Kind of data set: Antiproliferative activity against human […] cells assessed as inhibition of cell proliferation at 100 uM measured after 48 hrs by MTT assay relative to control. The class given is functional.
The test system of data set [3] is HepG2. Nature of the data set: Antiproliferative activity against human HepG2 cells assessed as inhibition of cell proliferation at 30 uM measured after 48 hrs by MTT assay relative to control. The class given is functional.
Data set [4] deals with HepG2. Nature of the data set: Antiproliferative activity against human HepG2 cells assessed as inhibition of cell proliferation at 100 uM measured after 48 hrs by MTT assay relative to control. The class given is functional.
Data set [5] in a line: Cytotoxicity against human QSG7701 cells assessed as inhibition of cell proliferation at 30 uM measured after 48 hrs by MTT assay relative to control. It is filed as cell-based.
Data set [6] can be described thus: Cytotoxicity against human QSG7701 cells assessed as inhibition of cell proliferation at 100 uM measured after 48 hrs by MTT assay relative to control. The class given is cell-based.
For data set [7], the system named is Mus musculus. Kind of data set: Upregulation of phosphorylated p38 in Kunming mouse implanted with mouse H22 cells assessed as activation of p53 at 800 uM measured after 48 hrs by immunofluorescence analysis. It is filed as functional.
Data set [8] relates to Mus musculus. Nature of the data set: Upregulation of phosphorylated JNK in Kunming mouse implanted with mouse H22 cells assessed as activation of p53 at 800 uM measured after 48 hrs by immunofluorescence analysis. It is filed as functional.
In data set [9] the test system is Mus musculus. Nature of the data set: Downregulation of Bcl-2 in Kunming mouse implanted with mouse H22 cells at 800 uM measured after 48 hrs by immunofluorescence analysis. The class given is functional.
In data set [10] the test system is HepG2. Kind of data set: Induction of mitochondrial membrane potential loss in human HepG2 cells at 80 uM after 48 hrs by Rh123 staining based assay. The class given is functional, cell-based.
For data set [11], the system named is HepG2. Nature of the data set: Induction of lysosomal impairment in human HepG2 cells at 80 uM after 48 hrs by Lyso-tracker Red staining based assay. The class given is functional, cell-based.
For data set [12], the system named is HepG2. Nature of the data set: Induction of ROS generation in human HepG2 cells at 80 uM after 48 hrs by DCFH-DA staining based assay. The class given is functional, cell-based.
For data set [13], the system named is HepG2. Nature of the data set: Induction of apoptosis in human HepG2 cells assessed as activation of caspase 3 at 80 uM measured after 48 hrs by immunofluorescence assay. It is filed as functional, cell-based.
Data set [14] relates to HepG2. Kind of data set: Induction of apoptosis in human HepG2 cells assessed as activation of caspase 8 at 80 uM measured after 48 hrs by immunofluorescence assay. The class given is functional, cell-based.
Data set [15] deals with HepG2. Nature of the data set: Induction of apoptosis in human HepG2 cells assessed as activation of caspase 9 at 80 uM measured after 48 hrs by immunofluorescence assay. The class given is functional, cell-based.
Data set [16] deals with H22. Nature of the data set: Antitumor activity against mouse H22 cells implanted in Kunming mouse assessed as reduction in tumor weight at 100 mg/kg, iv administered for 7 consecutive days starting from day 8 post inoculation and measured after 16 days (reference value: 2.15 +/- 0.51 g). It is filed as functional. Conditions: time 8 day.
Data set [17] has as its system H22. Nature of the data set: Antitumor activity against mouse H22 cells implanted in Kunming mouse assessed as tumor growth inhibition at 100 mg/kg, iv administered for 7 consecutive days starting from day 8 post inoculation and measured after 16 days relative to control. The class given is functional. Conditions: 192 h, time 8 day, read-out: TGI.
A short description of data set [18]: Toxicity in Kunming mouse implanted with mouse H22 cells assessed as change in mouse body weight at 100 mg/kg, iv administered for 7 consecutive days starting from day 8 post inoculation and measured after 16 days (reference value: 21 %). The class given is organism-based. The conditions noted are these: in vivo, 192 h, time 8 day.
The test system of data set [19] is H22. Kind of data set: Antimetastatic activity against mouse H22 cells implanted in Kunming mouse assessed as inhibition of metastasis at 100 mg/kg, iv administered for 7 consecutive days starting from day 11 post inoculation and measured after 18 days relative to control. The class given is functional. Conditions: 192 h, time 8 day.
Data set [20] in a line: Toxicity in Kunming mouse implanted with mouse H22 cells assessed as change in body weight at 100 mg/kg, iv administered for 7 consecutive days starting from day 11 post inoculation and measured after 18 days (reference value: 5.2 %). It is filed as organism-based. Conditions: in vivo, 192 h, time 8 day.
The nature of data set [21]: Toxicity in Kunming mouse implanted with mouse H22 cells assessed as mouse mortality at 100 mg/kg, iv administered for 7 consecutive days starting from day 8 post inoculation and measured after 16 days. It is filed as organism-based. The conditions noted are these: in vivo, 192 h, time 8 day.
The subject of data set [22] is SMMC-7721. Nature of the data set: Antiproliferative activity against human […] cells assessed as inhibition of cell proliferation at 1 uM measured after 48 hrs by MTT assay relative to control. It is filed as functional.
Data set [23] concerns SMMC-7721. Nature of the data set: Antiproliferative activity against human […] cells assessed as inhibition of cell proliferation at 5 uM measured after 48 hrs by MTT assay relative to control. It is filed as functional.
The test system of data set [24] is HepG2. Kind of data set: Antiproliferative activity against human HepG2 cells assessed as inhibition of cell proliferation at 1 uM measured after 48 hrs by MTT assay relative to control. The class given is functional.
In data set [25] the test system is HepG2. Nature of the data set: Antiproliferative activity against human HepG2 cells assessed as inhibition of cell proliferation at 5 uM measured after 48 hrs by MTT assay relative to control. The class given is functional.
Data set [26] is described as follows: Cytotoxicity against human QSG7701 cells assessed as inhibition of cell proliferation at 1 uM measured after 48 hrs by MTT assay relative to control. It is filed as cell-based.
The nature of data set [27]: Cytotoxicity against human QSG7701 cells assessed as inhibition of cell proliferation at 5 uM measured after 48 hrs by MTT assay relative to control. The class given is cell-based.
Data set [28] has as its system H22. Kind of data set: Antitumor activity against mouse H22 cells implanted in Kunming mouse assessed as reduction in tumor weight at 0.4 mg/kg, iv administered for 7 consecutive days starting from day 8 post inoculation and measured after 16 days (reference value: 2.15 +/- 0.51 g). The class given is functional. Conditions: time 8 day.
For data set [29], the system named is H22. Kind of data set: Antitumor activity against mouse H22 cells implanted in Kunming mouse assessed as tumor growth inhibition at 0.4 mg/kg, iv administered for 7 consecutive days starting from day 8 post inoculation and measured after 16 days relative to control. It is filed as functional. The conditions noted are these: 192 h, time 8 day, read-out: TGI.

Data set [30] in a line: Toxicity in Kunming mouse implanted with mouse H22 cells assessed as change in mouse body weight at 0.4 mg/kg, iv administered for 7 consecutive days starting from day 8 post inoculation and measured after 16 days (reference value: 21 %). Conditions: in vivo, 192 h, time 8 day. It is filed as organism-based.
Data set [31] is described as follows: Toxicity in iv dosed Kunming mouse assessed as maximum tolerated dose. It is filed as organism-based. Conditions: in vivo.
For data set [32], the system named is H22. Kind of data set: Antimetastatic activity against mouse H22 cells implanted in Kunming mouse assessed as number of metastatic focus at 0.4 mg/kg, iv administered for 7 consecutive days starting from day 11 post inoculation and measured after 18 days (reference value: 5.73 +/- 14.6). The class given is functional. Conditions: time 8 day.
Data set [33] concerns H22. Nature of the data set: Antimetastatic activity against mouse H22 cells implanted in Kunming mouse assessed as inhibition of metastasis at 0.4 mg/kg, iv administered for 7 consecutive days starting from day 11 post inoculation and measured after 18 days relative to control. Conditions: 192 h, time 8 day. The class given is functional.
The nature of data set [34]: Toxicity in Kunming mouse implanted with mouse H22 cells assessed as change in body weight at 0.4 mg/kg, iv administered for 7 consecutive days starting from day 11 post inoculation and measured after 18 days (reference value: 5.2 %). The class given is organism-based. Conditions: in vivo, 192 h, time 8 day.
Data set [35] is described as follows: Toxicity in Kunming mouse implanted with mouse H22 cells assessed as mouse mortality at 0.4 mg/kg, iv administered for 7 consecutive days starting from day 8 post inoculation and measured after 16 days. The class given is organism-based. The conditions noted are these: in vivo, 192 h, time 8 day.

Activity calls are given as the source filed them. No cut-off for these calls is given here.

For the compound `CCCCNCC(=O)NCc1cccc2c(=O)cc(-c3cccc4ccccc34)oc12`, the figures for the inhibition at 30 µM with SMMC-7721 [1] and in the data set with HepG2 [3] were 14.6% and 6%, respectively. In addition, the inhibition (usually how much of the control response was suppressed) at 100 µM with SMMC-7721 [2] amounted to 28.4%; in the data set on HepG2 [4], 21.6%. Also, the inhibition at 48 h, 30 µM in data set [5] was found to be 19.6%. For the same compound, the inhibition at 48 h, 100 µM in [6] turned out to be 41.7%.
Turning to `NCCCCNCCCNCC(=O)NCc1cccc2c(=O)cc(-c3cccc4ccccc34)oc12`, the inhibition at 30 µM with SMMC-7721 [1] was 7.6%; with HepG2 [3], less than 5%. The values for the inhibition at 100 µM with SMMC-7721 [2] and with HepG2 [4] were 32.5% and 28.9%, respectively. Further, in data set [5], the inhibition at 48 h, 30 µM is less than 5%. Further, the inhibition at 48 h, 100 µM in [6] stood at 22.4%.
Consider `CN(C)CCNCC(=O)NCc1cccc2c(=O)cc(-c3cccc4ccccc34)oc12`, for which the inhibition at 30 µM with SMMC-7721 [1] and with HepG2 [3] was less than 5% each time. The figures for the inhibition at 100 µM in the data set with SMMC-7721 [2] and with HepG2 [4] were 16.6% and 7.5%, respectively. In addition, in data set [5], the inhibition at 48 h, 30 µM is less than 5%. For the same compound, the inhibition at 48 h, 100 µM in data set [6] amounted to 17.9%.
On to `CC(=O)Oc1ccccc1C(=O)O`, for which the result with Mus musculus [7], in the data set with Mus musculus [8] and in the data set on Mus musculus [9] was Active.
Turning to `O=c1c(O)c(-c2ccc(O)c(O)c2)oc2cc(O)cc(O)c12` [QUERCETIN], the inhibition at 30 µM is 29.5% with SMMC-7721 [1] and 33.2% in the data set on HepG2 [3]. In addition, the inhibition at 100 µM in the data set with SMMC-7721 [2] was 62.9%; in the data set on HepG2 [4], 56.3%. Further, in [5], the inhibition at 48 h, 30 µM was less than 5%. Also, in [6], the inhibition at 48 h, 100 µM was 36%. In addition, the outcome in the data set on HepG2 [10], in the data set on HepG2 [11], with HepG2 [12], in the data set on HepG2 [13], with HepG2 [14] and in the data set on HepG2 [15] was Active. In addition, the Activity in the data set on H22 [16] is 1.3 g; in data set [18] it was 6.3%; in data set [20], 2.1%; in [21] it was “Non-Toxic”. The inhibition in vivo at 100 mg/kg in the data set on H22 [17] amounted to 39.7%; with H22 [19], 34.1%.
Take `NCCCCNCCCCNCC(=O)NCc1cccc2c(=O)cc(-c3cccc4ccccc34)oc12`: the inhibition at 30 µM stood at 70.2% in the data set with SMMC-7721 [1] and 62% in the data set on HepG2 [3]. The inhibition at 100 µM in the data set with SMMC-7721 [2] came out at 85.5%; with HepG2 [4], 75.9%. For the same compound, in [5], the inhibition at 48 h, 30 µM turned out to be 46.7%. In addition, the inhibition at 48 h, 100 µM in [6] came out at 74.4%.
Regarding `NCCCCNCC(=O)NCc1cccc2c(=O)cc(-c3cccc4ccccc34)oc12`, the inhibition at 30 µM in the data set with SMMC-7721 [1] and in the data set on HepG2 [3] was less than 5% in each case. Moreover, the figures for the inhibition at 100 µM in the data set with SMMC-7721 [2] and with HepG2 [4] were 39.8% and 16.1%, respectively. Also, the inhibition at 48 h, 30 µM in [5] was less than 5%. Further, in [6], the inhibition at 48 h, 100 µM came to 10.6%.
As to `O=C1c2c(O)ccc(O)c2C(=O)c2c(NCCNCCO)ccc(NCCNCCO)c21` [MITOXANTRONE], the values for the inhibition at 1 µM with SMMC-7721 [22] and in the data set with HepG2 [24] were 20.5% and 41.2%, respectively. Further, the values for the inhibition at 5 µM with SMMC-7721 [23] and in the data set on HepG2 [25] were 62.2% and 78.6%, respectively. Also, the inhibition at 48 h, 1 µM in [26] stood at 75.8%. The inhibition at 48 h, 5 µM in [27] was determined as 82.5%. The Activity is reported as 0.57 g with H22 [28]; -6.6% in data set [30]; 29.1 in the data set with H22 [32]; -0.8% in [34]; “Non-Toxic” in data set [35]. The inhibition in vivo at 0.4 mg/kg is 73.4% in the data set with H22 [29] and 49.2% with H22 [33]. In data set [31], the MTD (usually the highest dose tested that stayed within the study's limit of toxicity) was 0.4 mg/kg.
